Key:
[1] = human, in vivo, po, 400 mg
Description: The effect of food on the pharmacokinetic parameters of 400 mg oral dose of nilotinib in the formulation mentioned above was studied in human subjects. […] In view of these findings, it is recommended that nilotinib shall not be taken with a meal in order to minimize the effect of food on nilotinib bioavailability. A statement in this regard is, for instance, included in sections 4.2, 4.4 and 4.5 of the SPC (Summary of Product Characteristics) of the marketing authorization for Tasigna™ issued by the European Medicines Agency (EMEA).

[2] = Study in CML patients obtaining 400 mg nilotinib twice daily (trough concentrations C0, C12); assay type: in vivo, human; details: 21 CML patients, 400 mg twice daily
Description: 21 Patients were treated with 400 mg nilotinib twice daily. Blood samples were collected prior to morning dose (C0) and prior to evening dose (C12). […] With other words, the trough concentration of nilotinib in the morning was 60 to 80% higher than that observed in the evening.

[3] = PK study in healthy volunteers (4-way crossover, morning vs evening dosing); assay type: in vivo, human
Description: The increased exposure with QHS was confirmed in a study investigating nilotinib pharmacokinetics in healthy volunteers (HV) comparing cohorts receiving 600 mg morning dose or 600 mg morning dose QHS, respectively. In a single center, 4-way crossover study (n=16-24), HV group A was administered 300 mg nilotinib (in the form of nilotinib monohydrochloride monohydrate) in the morning, 2 hours after breakfast; HV group B was administered 300 mg nilotinib (in the form of nilotinib monohydrochloride monohydrate) in the evening, 2 hours after diner; HV group C was administered 600 mg nilotinib (in the form of nilotinib monohydrochloride monohydrate) in the evening, 2 hours after diner; and HV group D was administered 600 mg nilotinib (in the form of nilotinib monohydrochloride monohydrate) in the evening, 4 hours after diner.
The nilotinib PK was compared when administered in the evening versus administration in the morning (B vs. A) and the potential residual food effect on nilotinib absorption was assessed (D vs. C).

[4] = 300 mg evening vs 300 mg morning
[5] = 600 mg evening 4 hours after diner vs 2 hours after diner
[6] = group A: 300 mg in the morning, 2 hours after breakfast, N = 20
[7] = group B: 300 mg in the evening, 2 hours after diner, N = 18
[8] = group C: 600 mg in the evening, 2 hours after diner, N = 22
[9] = group D: 600 mg in the evening, 4 hours after diner, N = 22

increase in total exposure (AUC0-t) with food [1]: 29% | total exposure (AUC0-t) increase with food [1]: 82% | ratio C0/C12 (concentration prior to morning dose / prior to evening dose) [2]: 1.7 | AUC0-12, Geometric Mean Ratio (90% Cls) B vs A [3, 4]: 1.21 | AUC0-24, Geometric Mean Ratio (90% Cls) B vs A [3, 4]: 1.21 | AUC0-inf, Geometric Mean Ratio (90% Cls) B vs A [3, 4]: 1.09 | AUC0-tlast, Geometric Mean Ratio (90% Cls) B vs A [3, 4]: 1.14 | Cmax, Geometric Mean Ratio (90% Cls) B vs A [3, 4]: 1.14 | tmax, Geometric Mean Ratio (90% Cls) B vs A [3, 4]: 0.49 | AUC0-12, Geometric Mean Ratio (90% Cls) D vs C [3, 5]: 0.93 | AUC0-24, Geometric Mean Ratio (90% Cls) D vs C [3, 5]: 0.93 | AUC0-inf, Geometric Mean Ratio (90% Cls) D vs C [3, 5]: 0.94 | AUC0-tlast, Geometric Mean Ratio (90% Cls) D vs C [3, 5]: 0.94 | Cmax, Geometric Mean Ratio (90% Cls) D vs C [3, 5]: 0.92 | tmax, Geometric Mean Ratio (90% Cls) D vs C [3, 5]: −0.49 | AUC0-12 [3, 6]: 4577 ng·h/mL | AUC0-24 [3, 6]: 7781 ng·h/mL | AUC0-inf [3, 6]: 14920 ng·h/mL | AUC0-tlast [3, 6]: 13650 ng·h/mL | Cmax [3, 6]: 577 ng/mL | t1/2 [3, 6]: 20.3 h | tmax [3, 6]: 4.0 h | AUC0-12 [3, 7]: 5537 ng·h/mL | AUC0-24 [3, 7]: 9435 ng·h/mL | AUC0-inf [3, 7]: 16272 ng·h/mL | AUC0-tlast [3, 7]: 15556 ng·h/mL | Cmax [3, 7]: 655 ng/mL | t1/2 [3, 7]: 14.5 h | tmax [3, 7]: 4.0 h | AUC0-12 [3, 8]: 7124 ng·h/mL | AUC0-24 [3, 8]: 11857 ng·h/mL | AUC0-inf [3, 8]: 23216 ng·h/mL | AUC0-tlast [3, 8]: 20819 ng·h/mL | Cmax [3, 8]: 854 ng/mL | t1/2 [3, 8]: 20.5 h | tmax [3, 8]: 4.0 h | AUC0-12 [3, 9]: 6650 ng·h/mL | AUC0-24 [3, 9]: 111064 ng·h/mL | AUC0-inf [3, 9]: 21937 ng·h/mL | AUC0-tlast [3, 9]: 19591 ng·h/mL | Cmax [3, 9]: 782 ng/mL | t1/2 [3, 9]: 19.9 h | tmax [3, 9]: 4.0 h | exposure higher following the evening dose than the morning dose ([3]; healthy volunteers, evening vs morning dose): up to 20%
SMILES: Cc1cn(-c2cc(NC(=O)c3ccc(C)c(Nc4nccc(-c5cccnc5)n4)c3)cc(C(F)(F)F)c2)cn1 [nilotinib, 4-methyl-3-[[4-(3-pyridinyl)-2-pyrimidinyl]amino]-N-[5-(4-methyl-1H-imidazol-1-yl)-3-(trifluoromethyl)phenyl] benzamide]

— patent publication US20170143716A1, “METHOD OF TREATING PROLIFERATIVE DISORDERS AND OTHER PATHOLOGICAL CONDITIONS MEDIATED BY BCR-ABL, C-KIT, DDR1, DDR2 OR PDGF-R KINASE ACTIVITY” (Novartis AG, priority 2009, published 2017)
